# Reference: patent US10954269B2, “Anti-inflammatory tripeptides” (Dr. August Wolff Gmbh & Co. KG Arzneimittel, priority 2013, dated 2021)
# What was measured:
# Conditions in all cases: substance 10^−9M
# [1] = tested on: human keratinocyte cell line (HaCaT); experiment: Cytokine secretion on protein level in activated human keratinocyte cell line HaCaT (13-plex FACS / Luminex, supernatant); assay type: cell-based
# Procedure, shortened: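 Stimulus: PMA/Ionomycin or IFN-γ, 48 h; cells: HaCaT or human peripheral-blood T-cells; tripeptide treatment; readout: supernatant cytokines via 13-plex FACS or Luminex, 48–72 h post-stimulation.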
# primary human T-cells = experiment: Cytokine secretion on protein level in activated primary human T-cells (13-plex FACS / Luminex, supernatant); assay type: cell-based
# Procedure, shortened: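 PMA/Ionomycin- or IFN-γ-activated cells (48 h) treated with tripeptides; supernatant 13-plex FACS at 48 h and 72 h post-stimulation. Luminex run: PMA/Ionomycin plus compound at 10^−7, 10^−9, 10^−11 M; IFN-γ, IL-17, IL-10 for T cells, IFN-γ for HaCaT.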
# primary murine T-cells = experiment: Cytokine secretion on protein level in activated primary murine T-cells (13-plex FACS / Luminex, supernatant); assay type: cell-based, C57BL/6 mice
# Procedure, shortened: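 T-cells from secondary lymphatic organs of naïve C57BL/6 mice, stimulated with PMA/Ionomycin or IFN-γ; supernatant cytokines measured by 13-plex FACS 48 h and 72 h after stimulation. In another run, PMA/Ionomycin-stimulated cells received compounds at 10^−7, 10^−9 and 10^−11 M, with IFN-γ, IL-17 and IL-10 measured by Luminex.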
# [2] = HaCaT stimulated with PMA/Ionomycin
# [3] = primary human T-cells stimulated with IFN-γ
# [4] = primary human T-cells stimulated with PBS
# [5] = primary human T-cells stimulated with PMA/Ionomycin
# [6] = primary murine T-cells stimulated with IFN-γ
# [7] = primary murine T-cells stimulated with PBS
# [8] = primary murine T-cells stimulated with PMA/Ionomycin
substance,measurement,setting,value
"N^α,N^α-dimethyl-(L)-Lys-(D)-Pro-N^α-methyl-(L)-Thr-NH2 [Example 4]",IL-1 cytokine concentration,[1]; HaCaT stimulated with IFN-γ,0 pg/mL
same,IL-2 cytokine concentration,[1]; HaCaT stimulated with IFN-γ,0 pg/mL
same,IL-4 cytokine concentration,[1]; HaCaT stimulated with IFN-γ,0 pg/mL
same,IL-5 cytokine concentration,[1]; HaCaT stimulated with IFN-γ,0 pg/mL
same,IL-6 cytokine concentration,[1]; HaCaT stimulated with IFN-γ,224.07 pg/mL
same,IL-9 cytokine concentration,[1]; HaCaT stimulated with IFN-γ,0 pg/mL
same,IL-10 cytokine concentration,[1]; HaCaT stimulated with IFN-γ,0 pg/mL
same,IL-12p70 cytokine concentration,[1]; HaCaT stimulated with IFN-γ,0 pg/mL
same,IL-13 cytokine concentration,[1]; HaCaT stimulated with IFN-γ,0 pg/mL
same,IL-17 cytokine concentration,[1]; HaCaT stimulated with IFN-γ,13.16 pg/mL
same,IL-22 cytokine concentration,[1]; HaCaT stimulated with IFN-γ,0 pg/mL
same,TNF-α cytokine concentration,[1]; HaCaT stimulated with IFN-γ,0 pg/mL
same,IFN-γ cytokine concentration,[1]; HaCaT stimulated with PBS,0 pg/mL
same,IL-1 cytokine concentration,[1]; HaCaT stimulated with PBS,0 pg/mL
same,IL-2 cytokine concentration,[1]; HaCaT stimulated with PBS,18.85 pg/mL
same,IL-4 cytokine concentration,[1]; HaCaT stimulated with PBS,109.04 pg/mL
same,IL-5 cytokine concentration,[1]; HaCaT stimulated with PBS,0 pg/mL
same,IL-6 cytokine concentration,[1]; HaCaT stimulated with PBS,80.55 pg/mL
same,IL-9 cytokine concentration,[1]; HaCaT stimulated with PBS,2.87 pg/mL
same,IL-10 cytokine concentration,[1]; HaCaT stimulated with PBS,61.87 pg/mL
same,IL-12p70 cytokine concentration,[1]; HaCaT stimulated with PBS,0 pg/mL
same,IL-13 cytokine concentration,[1]; HaCaT stimulated with PBS,123.68 pg/mL
same,IL-17 cytokine concentration,[1]; HaCaT stimulated with PBS,12.85 pg/mL
same,IL-22 cytokine concentration,[1]; HaCaT stimulated with PBS,0 pg/mL
same,TNF-α cytokine concentration,[1]; HaCaT stimulated with PBS,0 pg/mL
same,IFN-γ cytokine concentration,[1]; [2],39.23 pg/mL
same,IL-1 cytokine concentration,[1]; [2],0 pg/mL
same,IL-2 cytokine concentration,[1]; [2],0 pg/mL
same,IL-4 cytokine concentration,[1]; [2],0 pg/mL
same,IL-5 cytokine concentration,[1]; [2],16.77 pg/mL
same,IL-6 cytokine concentration,[1]; [2],225.53 pg/mL
same,IL-9 cytokine concentration,[1]; [2],0 pg/mL
same,IL-10 cytokine concentration,[1]; [2],97.56 pg/mL
same,IL-12p70 cytokine concentration,[1]; [2],0 pg/mL
same,IL-13 cytokine concentration,[1]; [2],0 pg/mL
same,IL-17 cytokine concentration,[1]; [2],28.83 pg/mL
same,IL-22 cytokine concentration,[1]; [2],0 pg/mL
same,TNF-α cytokine concentration,[1]; [2],3.93 pg/mL
same,IL-1 cytokine concentration,primary human T-cells; [3],366.09 pg/mL
same,IL-2 cytokine concentration,primary human T-cells; [3],326.11 pg/mL
same,IL-4 cytokine concentration,primary human T-cells; [3],176.6 pg/mL
same,IL-5 cytokine concentration,primary human T-cells; [3],27.34 pg/mL
same,IL-6 cytokine concentration,primary human T-cells; [3],180.43 pg/mL
same,IL-9 cytokine concentration,primary human T-cells; [3],10.84 pg/mL
same,IL-10 cytokine concentration,primary human T-cells; [3],75.72 pg/mL
same,IL-12p70 cytokine concentration,primary human T-cells; [3],0 pg/mL
same,IL-13 cytokine concentration,primary human T-cells; [3],212.64 pg/mL
same,IL-17 cytokine concentration,primary human T-cells; [3],162.73 pg/mL
same,IL-22 cytokine concentration,primary human T-cells; [3],0 pg/mL
same,TNF-α cytokine concentration,primary human T-cells; [3],103.24 pg/mL
same,IL-1 cytokine concentration,primary human T-cells; [4],122.89 pg/mL
same,IL-2 cytokine concentration,primary human T-cells; [4],0 pg/mL
same,IL-4 cytokine concentration,primary human T-cells; [4],60.49 pg/mL
same,IL-5 cytokine concentration,primary human T-cells; [4],0 pg/mL
same,IL-6 cytokine concentration,primary human T-cells; [4],226.2 pg/mL
same,IL-9 cytokine concentration,primary human T-cells; [4],3.71 pg/mL
same,IL-10 cytokine concentration,primary human T-cells; [4],0 pg/mL
same,IL-12p70 cytokine concentration,primary human T-cells; [4],0 pg/mL
same,IL-13 cytokine concentration,primary human T-cells; [4],0 pg/mL
same,IL-17 cytokine concentration,primary human T-cells; [4],0 pg/mL
same,IL-22 cytokine concentration,primary human T-cells; [4],0 pg/mL
same,INF-α cytokine concentration,primary human T-cells; [4],0 pg/mL
same,TNF-α cytokine concentration,primary human T-cells; [4],0 pg/mL
same,IL-1 cytokine concentration,primary human T-cells; [5],689.99 pg/mL
same,IL-2 cytokine concentration,primary human T-cells; [5],1227.93 pg/mL
same,IL-4 cytokine concentration,primary human T-cells; [5],239.37 pg/mL
same,IL-5 cytokine concentration,primary human T-cells; [5],473.23 pg/mL
same,IL-6 cytokine concentration,primary human T-cells; [5],1280 pg/mL
same,IL-9 cytokine concentration,primary human T-cells; [5],239.43 pg/mL
same,IL-10 cytokine concentration,primary human T-cells; [5],417.95 pg/mL
same,IL-12p70 cytokine concentration,primary human T-cells; [5],0 pg/mL
same,IL-13 cytokine concentration,primary human T-cells; [5],1081.09 pg/mL
same,IL-17 cytokine concentration,primary human T-cells; [5],1356.78 pg/mL
same,IL-22 cytokine concentration,primary human T-cells; [5],0 pg/mL
same,INF-α cytokine concentration,primary human T-cells; [5],5384.11 pg/mL
same,TNF-α cytokine concentration,primary human T-cells; [5],4112.99 pg/mL
same,IL-1 cytokine concentration,primary murine T-cells; [6],100.01 pg/mL
same,IL-2 cytokine concentration,primary murine T-cells; [6],206.76 pg/mL
same,IL-4 cytokine concentration,primary murine T-cells; [6],0 pg/mL
same,IL-5 cytokine concentration,primary murine T-cells; [6],486.86 pg/mL
same,IL-6 cytokine concentration,primary murine T-cells; [6],235.86 pg/mL
same,IL-10 cytokine concentration,primary murine T-cells; [6],1250.21 pg/mL
same,IL-13 cytokine concentration,primary murine T-cells; [6],0 pg/mL
same,IL-17 cytokine concentration,primary murine T-cells; [6],92.71 pg/mL
same,IL-21 cytokine concentration,primary murine T-cells; [6],814.33 pg/mL
same,IL-22 cytokine concentration,primary murine T-cells; [6],114.68 pg/mL
same,IL-27 cytokine concentration,primary murine T-cells; [6],138.81 pg/mL
same,TNF-α cytokine concentration,primary murine T-cells; [6],47.36 pg/mL
same,IFN-γ cytokine concentration,primary murine T-cells; [7],2456.98 pg/mL
same,IL-1 cytokine concentration,primary murine T-cells; [7],78.5 pg/mL
same,IL-2 cytokine concentration,primary murine T-cells; [7],147.3 pg/mL
same,IL-4 cytokine concentration,primary murine T-cells; [7],119.19 pg/mL
same,IL-5 cytokine concentration,primary murine T-cells; [7],377.16 pg/mL
same,IL-6 cytokine concentration,primary murine T-cells; [7],189.26 pg/mL
same,IL-10 cytokine concentration,primary murine T-cells; [7],1006.65 pg/mL
same,IL-13 cytokine concentration,primary murine T-cells; [7],0 pg/mL
same,IL-17 cytokine concentration,primary murine T-cells; [7],0 pg/mL
same,IL-21 cytokine concentration,primary murine T-cells; [7],330.42 pg/mL
same,IL-22 cytokine concentration,primary murine T-cells; [7],84.16 pg/mL
same,IL-27 cytokine concentration,primary murine T-cells; [7],329.85 pg/mL
same,TNF-α cytokine concentration,primary murine T-cells; [7],18.91 pg/mL
same,IFN-γ cytokine concentration,primary murine T-cells; [8],3234.33 pg/mL
same,IL-1 cytokine concentration,primary murine T-cells; [8],196.76 pg/mL
same,IL-2 cytokine concentration,primary murine T-cells; [8],292.52 pg/mL
same,IL-4 cytokine concentration,primary murine T-cells; [8],123.15 pg/mL
same,IL-5 cytokine concentration,primary murine T-cells; [8],465.44 pg/mL
same,IL-6 cytokine concentration,primary murine T-cells; [8],245.96 pg/mL
same,IL-10 cytokine concentration,primary murine T-cells; [8],1383.24 pg/mL
same,IL-13 cytokine concentration,primary murine T-cells; [8],0 pg/mL
same,IL-17 cytokine concentration,primary murine T-cells; [8],391.98 pg/mL
same,IL-21 cytokine concentration,primary murine T-cells; [8],987.02 pg/mL
same,IL-22 cytokine concentration,primary murine T-cells; [8],48.93 pg/mL
same,IL-27 cytokine concentration,primary murine T-cells; [8],80.01 pg/mL
same,TNF-α cytokine concentration,primary murine T-cells; [8],62.85 pg/mL
